In article PMC5834492, “Antimycobacterial drug discovery using Mycobacteria-infected amoebae identifies anti-infectives and new molecular targets” (Scientific Reports, 2018):
pIC50: −log10 of the molar value. Like-named read-outs stand apart in the source and are kept apart here.

Legend:
[1] = test system: M. marinum in A. castellanii; type: cell-based, Mycobacterium marinum; details: 10 µM
D. discoideum GFP-ABD = details: 10 µM
Mtb H37Rv = test system: Mtb H37Rv; set-up: method as in Sorrentino et al, 2015; details: ref Sorrentino et al, 2015; cited from earlier work
M. marinum luxCDABE = type: cell-based, Mycobacterium marinum; details: 10 µM
M. marinum GFP = type: cell-based, Mycobacterium marinum; details: 10 µM; antibiotic assay
Mtb H37Rv in THP-1 = test system: Mtb H37Rv in THP-1; set-up: method as in Sorrentino et al, 2015; details: ref Sorrentino et al, 2015, cited from earlier work; for Extracellular MIC90/ Inracellular MIC90: ratio
[2] = test system: M. marinum in BV2 microglial cells; type: cell-based, Mycobacterium marinum
[3] = THP1 / Mtb H37Rv infection assay

Row | SMILES | A. castellanii / M. marinum normalised growth, control=1.00, mean [1] | D. discoideum GFP-ABD normalised growth, control=1.00, mean (D. discoideum GFP-ABD) | Extracellular MIC90 (Mtb H37Rv) [µM] | M. marinum luxCDABE normalised growth, control=1.00, mean (M. marinum luxCDABE) | M. marinum GFP normalised growth, control=1.00, mean (M. marinum GFP) | Intracelullar MIC90 in THP-1 (Mtb H37Rv in THP-1; [3]) [µM] | Extracellular MIC90/ Inracellular MIC90 (Mtb H37Rv in THP-1) | pIC50 [2] | BV2 / M. marinum normalised growth, control=1.00, mean ([2]; 10 µM) | Hits A. castellanii/M. marinum assay True/False [1] | M. marinum luxCDABE normalised growth, control = 1.00, mean (M. marinum luxCDABE) | Intracelullar MIC90 in THP-1 (Mtb H37Rv in THP-1; Mtb H37Rv-infected THP1 cells) [µM] | hit in BV2/M. marinum assay True/False ([2]; 10 µM) | anti-infective properties in A. castellanii infection assay [1] | D. discoideum GFP-ABD normalised growth, control = 1.00, mean (D. discoideum GFP-ABD) | anti-infective properties in microglial cell (BV2) infection assay ([2]; 10 µM)
1 | N=C(Nc1nc(-c2ccccn2)cc2ccccc12)c1cccc(Cl)c1 [GSK381407A] | 1.06 | 0.98 | 4.5 | 0.00 | 7.92e-5 | 0.61 | 7.38 | 5.11 | 0.65 | – | – | – | – | – | – | –
2 | Cc1nc2ccccn2c1C(=O)NCc1ccc2c(c1)OCO2 [GSK498315A] | 0.56 | 0.81 | 2.9 | 0.00 | 0.0644 | 1.85 | 1.57 | 5.23 | 0.47 | FALSE | 0,00 | 1.85 | TRUE | – | – | –
3 | COc1cc2ccccc2cc1C(=O)NCc1cccc(-c2ccccc2OC)c1 [GSK695914A] | 0.63 | 0.98 | 2.2 | 0.00 | 0.0549 | 5.55 | 0.4 | 5.11 | 0.48 | FALSE | 0,00 | 5.55 | TRUE | – | – | –
4 | COc1ccc2nc(C)cc(OCC(=O)Nc3cc(C)cc(C)c3)c2c1 [GSK749336A] | 0.58 | 0.67 | 0.3 | 0.00 | 0.14 | 5.55 | 0.05 | 5.14 | 0.63 | – | – | – | – | – | – | –
5 | COc1ccc(CCNC(=O)c2c(C)nc3ccccn23)cc1 [GSK762874A] | 0.70 | 1.04 | 3.1 | 0.00 | 0.08 | 5.55 | 0.56 | 5.44 | 0.59 | – | – | – | – | – | – | –
6 | Cc1cccc(Cn2ccc(NC(=O)c3ccc4c(c3)OCO4)n2)c1 [GSK798463A] | 0.57 | 0.66 | 3.7 | 0.00 | 0.0323 | 5.55 | 0.67 | 5.30 | 0.80 | – | – | – | – | – | – | –
7 | c1csc(Cc2nn3c(-c4[nH]nc5c4CCC5)nnc3s2)c1 [GSK810037A] | 1.03 | 0.76 | 2.4 | 0.11 | 0.73 | 1.85 | 1.3 | 5.32 | 0.81 | – | – | – | – | – | – | –
8 | O=C(c1cc2ccccc2o1)N1CCN(Cc2ccc3c(c2)OCO3)CC1 [GSK861337A] | 0.70 | 0.31 | 2.7 | 0.00 | 0.10 | 5.55 | 0.49 | 5.03 | 0.77 | – | – | – | – | – | – | –
9 | COc1ccc(CCNc2cc(-c3ccccc3)nc3ncnn23)cc1 [GSK888636A] | 1.02 | 1.15 | 0.6 | 0.00 | 0.44 | 1.85 | 0.32 | 5.27 | 0.72 | – | – | – | – | – | – | –
10 | Cc1nc2ccccn2c1C(=O)NCc1cccs1 [GSK892651A] | 0.65 | 0.83 | 9 | 0.00 | 0.12 | 5.55 | 1.62 | 5.36 | 0.60 | – | – | – | – | – | – | –
11 | CSc1ccccc1C(=O)Nc1nc(-c2ccccn2)cs1 [GSK921190A] | 1.20 | 0.94 | 1.7 | 0.10 | 0.45 | 16.65 | 0.1 | 5.39 | 0.94 | – | – | – | – | – | – | –
12 | Cc1nc2ccccn2c1C(=O)NCc1ccccc1 [GSK957094A] | 0.54 | 0.93 | 2 | 0.11 | 0.0746 | 5.55 | 0.36 | 5.12 | 0.52 | – | – | – | – | – | – | –
13 | COc1ccccc1OCCCCn1c(C2CC2)nc2ccccc21 [GSK994258A] | 1.03 | 0.31 | 3.4 | 0.00 | 0.10 | 5.55 | 0.61 | 5.06 | 0.59 | – | – | – | – | – | – | –
14 | COc1ccc(Nc2ccccc2NC(=O)c2ccc(O)nc2)cc1 [GSK1051703A] | 1.00 | 1.00 | 7.1 | 1.00 | 0.84 | 5.55 | 1.28 | 5.19 | 0.65 | – | – | – | – | – | – | –
15 | O=C(NC(Cc1ccccc1)C(=O)Nc1ccccc1N1CCOCC1)c1cccs1 (stereo not drawn) [GSK1055950A] | 0.24 | 1.07 | 7.6 | 0.00 | -0.01 | 1.85 | 4.11 | 5.55 | 0.33 | TRUE | 0,00 | 1.85 | TRUE | strong anti-infective properties | 1,07 | strong anti-infective properties
16 | Cc1nnc(NCc2cccc(Cl)c2)c2ccccc12 [GSK1302651A] | 1.01 | 0.97 | 5.9 | 0.00 | 0.56 | 5.55 | 1.06 | 5.36 | 0.87 | – | – | – | – | – | – | –
17 | Cc1ccc(C(=O)Nc2nc(-c3ccccn3)cs2)s1 [GSK1372568A] | 1.35 | 0.31 | 8.4 | 0.00 | 0.69 | 50 | 0.17 | 5.27 | 0.95 | – | – | – | – | – | – | –
18 | CCn1c(=O)c(=O)[nH]c2cc(C(=O)Nc3ccccc3Nc3ccc(OC)cc3)ccc21 [GSK1385423A] | 1.07 | 0.39 | 8.4 | 1.00 | 0.98 | 0.61 | 13.77 | 5.62 | 0.71 | – | – | – | – | – | – | –
